Measured values published in patent US5972678A, “Animal 2-5A dependent RNases” (Cleveland Clinic Foundation, priority 1995, dated 1999).

Experiments:
[1] = test system: murine 2-5A-dependent RNase (truncated recombinant clone ZB1 and murine L cell enzyme); test: UV covalent crosslinking of 32P-2-5A probe with unlabeled oligonucleotide competitors, murine enzyme; format: binding; conditions: for concentration that prevents 2-5A probe binding: 32P-2-5A probe 2.4 nM, both recombinant (ZB1) and naturally occurring murine protein; for competition with 2-5A probe binding: competitor 100 nM, recombinant 74 kDa protein (clone ZB1) from wheat germ extract, similar profile with murine L929 cell enzyme
Method: FIG. 2A is a specific affinity of truncated murine 2-5A-dependent RNase for 2-5A. UV covalent crosslinking of the ^32 P-2-5A probe (lanes 1-7) to protein is performed after translation reactions in wheat germ extract (5 μl) with murine 2-5A-dependent RNase mRNA (from clone ZB1) (lanes 1-3) or without added RNA (lane 4) or in extract of interferon treated mouse L cells (100 μg of protein) (lanes 5-7). Reactions are without added competitor (lanes 1, 4, and 5) or in the presence of either trimer core. […] Lanes 8 and 9 are produced by incubating the wheat germ extract with ^35 S-methionine in the absence or presence of 2-5A-dependent RNase mRNA, respectively.
Autoradiograms of the dried SDS/10% polyacrylamide gels are shown. Concentrations of the oligonucleotide competitors are indicated. I is inosine.
To obtain recombinant protein for characterization, the cDNA is transcribed and translated in cell-free systems. See Example. 2-5A binding activity is then determined by covalently crosslinking the 2-5A probe to the protein with uv light, for example, Nolan-Sorden, N. L. et al., Anal. Biochem., 184: 298-304 (1990). […] See FIG. 2A, lanes 2 and 3, respectively. There is no detectable 2-5A binding proteins in the wheat germ extract as shown in the incubation without added RNA, FIG. 2A, lane 4. For comparison, a similar profile of 2-5A binding activity is obtained for the 80 kDa 2-5A-dependentRNase from murine L929 cells, incubated without added oligonucleotide or with (A2'p)2 A or p3 (A2'p)2 A as competitors. In a further comparison, covalent linkage of the 2-5A probe to the about 74 kDa protein and to murine L929 cell 2-5A-dependent RNase followed by partial digestion with chymotrypsin produces an identical pattern of six labeled peptides. Similarly, partial digestion of the two labeled proteins with S. aureus V8 protease also produces identical patterns of labeled cleavage products.
The 2-5A binding functions of the recombinant and naturally occurring forms of murine 2-5A-dependent RNase are characterized by covalent crosslinking to the 2-5A probe in the presence of unlabeled 2-5A or 2-5A analogues as competitors. […] In comparison, a 500-fold higher concentration of (A2'p)2 A (10 μM) is required to prevent probe binding to both proteins. See lane 13. The dimer species, p3 A2'pA, is unable to prevent the 2-5A probe from binding to the proteins even at a concentration of 10 μM (lane 18). However, the inosine analogue, p3 I2'pA2'pA, Imai, J. et al., J. Biol. Chem., 260: 1390-1393 (1985), is able to prevent probe binding to both proteins but only when added at a concentration of about 1.0 μM (lane 22).
The synthesis of the 2-5A probe, p(A2'p)2 (br^8 A2'p)2 A[32P]Cp, and its crosslinking to 2-5A-dependent RNase is performed exactly as described. See Nolan-Sorden, N. L. et al., Anal. Biochem., 184: 298-304 (1990). Briefly, the 2-5A probe, about 0.7 to 2.5 nM at […], is incubated for about one hour on ice with cell extract prepared as described, Silverman, R. H. and Krause, D., Lymphokines and Interferons: A Practical Approach, I.R.L. Press, Oxford. England, pp. 149-193 (1987), in the absence or presence of unlabeled oligonucleotide competitors. Covalent crosslinking is done under a uv lamp (308 nm) for one hour on ice and the proteins are separated on SDS/10% polyacrylamide gels. Filter assays for 2-5A binding activity using the 2-5A probe for about one hour on ice, as described in Knight, M. et al., Nature, 288: 189-192 (1980).

[2] = test system: human 2-5A-dependent RNase (recombinant and HeLa cell enzyme); test: UV covalent crosslinking of 2-5A probe with unlabeled competitors, human enzyme; format: binding; conditions: competitor 100 nM; recombinant human enzyme from wheat germ extract; same pattern with interferon-treated HeLa cell extract
Method: FIG. 5A is specific affinity of recombinant human 2-5A-dependent RNase for 2-5A. Crosslinking of the 2-5A probe (lanes 1-7) to protein is performed after translation reactions in wheat germ extract (5 μl) with human 2-5A-dependent RNase mRNA (lanes 1-3) or without added RNA (lane 4) or in extract of human interferon a treated (1000 units per ml for 16 h) human HeLa cells (350 μg of protein) (lanes 5-7). […] Incubations with ^35 S-methionine are shown in lanes 8 to 12. Lane 8 is with wheat germ extract and human 2-5A-dependent RNase mRNA. Reticulocyte lysate preadsorbed to 2-5A-cellulose is incubated with human 2-5A-dependent RNase MRNA in the absence (lane 9) or presence (lane 10) of cycloheximide, or in the absence of added mRNA (lane 11). […] The positions and relative molecular masses (in kDa) of the marker proteins are indicated.
The 2-5A binding properties of the recombinant and naturally occurring forms of human 2-5A-dependent RNase are compared by uv covalent crosslinking to the 2-5A probe. […] Radiolabeling of the cloned human 2-5A-dependent RNase with the 2-5A probe is not prevented by (A2'p)2 A. See FIG. 5A, lanes 1 and 2. […] See lane 3. The same pattern of 2-5A binding activity is obtained with 2-5A-dependent RNase in an extract of interferon-treated human HeLa cells. […]

[3] = test system: 2-5A probe, Br-2-5A-[32P]pCp; format: binding
[4] = test system: 2-5A probe; test: 2-5A binding activity of nested 3'-deletion mutants, filter binding assay and uv crosslinking assay; conditions: protein expressed in wheat germ extract
Text: See Example and Knight et al. 1980). The positions of the P-loop motifs and the lengths of the translation products are indicated. Clone ZB1 encodes for amino acids designated as 1-656 in Table II, except for the last 5 amino acid residues which are Lys, Pro, Leu, Ser, and Gly. Clone ZB2 encodes for amino acids designated as 1-619 in Table II. Clone ZB3 encodes for amino acids designated as 1-515 in Table II. Clone ZB5 encodes for amino acids designated as 1-474 in Table II. Clone ZB9 encodes for amino acids designated as 1-403 in Table II. Clone ZB10 encodes for amino acids designated as 1-365 in Table II. Clone ZB13 encodes for amino acids designated as 1-294 in Table II. Clone ZB14 encodes for amino acids designated as 1-265 in Table II. Clone ZB15 encodes for amino acids designated as 1-218 in Table II.
To further define sequences involved in 2-5A binding, nested 3'-deletions of the murine 2-5A-dependent RNase cDNA, clone ZB1, are constructed, transcribed in vitro, and expressed in a wheat germ extract. […] The levels of 2-5A binding activity are determined with the 2-5A probe in both a filter binding assay, Knight, M. et al., Nature, 288: 189-192 (1980), and the uv crosslinking assay, Nolan-Sorden, N. L. et al., Anal. Biochem., 184: 298-304 (1990), with similar results. […]

Q: Which results are given for p3 (A2'p)2 A?
A: concentration that prevents 2-5A probe binding [1]: about 20 nM; competition with 2-5A probe binding [1]: completely prevents probe binding; competition with 2-5A probe binding [2]: effectively competes with the 2-5A probe

Q: How did the “concentration that prevents 2-5A probe binding” value [1] turn out when p3 I2'pA2'pA was run?
A: about 1.0 μM

Q: Which “concentration that prevents 2-5A probe binding” value [1] does the source give for p3 A2'pA here?
A: > 10 µM

Q: For (A2'p)2 A, which “concentration that prevents 2-5A probe binding” value [1] is on record?
A: 10 µM

Q: And the “competition with 2-5A probe binding” value [1]?
A: fails to interfere with binding of the protein to the 2-5A probe

Q: And the “competition with 2-5A probe binding” value [2]?
A: not prevented

B1: Clone ZB1: truncated recombinant murine 2-5A-dependent RNase, amino acids 1-656 in Table II (protein, UniProt Q05921 1-656, looked up, fragment)
chain: METPDYNTPQGGTPSAGSQRTVVEDDSSLIKAVQKGDVVRVQQLLEKGADANACEDTWGWTPLHNAVQAGRVDIVNLLLSHGADPHRRKKNGATPFIIAGIQGDVKLLEILLSCGADVNECDENGFTAFMEAAERGNAEALRFLFAKGANVNLRRQTTKDKRRLKQGGATALMSAAEKGHLEVLRILLNDMKAEVDARDNMGRNALIRTLLNWDCENVEEITSILIQHGADVNVRGERGKTPLIAAVERKHTGLVQMLLSREGINIDARDNEGKTALLIAVDKQLKEIVQLLLEKGADKCDDLVWIARRNHDYHLVKLLLPYVANPDTDPPAGDWSPHSSRWGTALKSLHSMTRPMIGKLKIFIHDDYKIAGTSEGAVYLGIYDNREVAVKVFRENSPRGCKEVSCLRDCGDHSNLVAFYGREDDKGCLYVCVSLCEWTLEEFLRLPREEPVENGEDKFAHSILLSIFEGVQKLHLHGYSHQDLQPQNILIDSKKAVRLADFDQSIRWMGESQMVRRDLEDLGRLVLYVVMKGEIPFETLKTQNDEVLLTMSPDEETKDLIHCLFSPGENVKNCLVDLLGHPFFWTWENRYRTLRNVGNESDIKVRKCKSDLLRLLQHQTLEPPRSFDQWTSKIDKNVMDEMNHFYEKRKKNPYQD
Q: How did the “2-5A binding activity compared with naturally occurring enzyme (in words)” value ([3]; uv crosslinking to 2-5A probe with competitors, protein missing about 84 carboxy-terminal amino acids) turn out when B1 was run?
A: indistinguishable from that of naturally occurring 2-5A-dependentRNase

B2: Clone ZB1 (Lys^240,274 →Asn): double mutant of clone ZB1, lysines 240 and 274 replaced with asparagine (protein, UniProt Q05921 1-656, looked up, variant K240N K274N)
chain: METPDYNTPQGGTPSAGSQRTVVEDDSSLIKAVQKGDVVRVQQLLEKGADANACEDTWGWTPLHNAVQAGRVDIVNLLLSHGADPHRRKKNGATPFIIAGIQGDVKLLEILLSCGADVNECDENGFTAFMEAAERGNAEALRFLFAKGANVNLRRQTTKDKRRLKQGGATALMSAAEKGHLEVLRILLNDMKAEVDARDNMGRNALIRTLLNWDCENVEEITSILIQHGADVNVRGERGNTPLIAAVERKHTGLVQMLLSREGINIDARDNEGNTALLIAVDKQLKEIVQLLLEKGADKCDDLVWIARRNHDYHLVKLLLPYVANPDTDPPAGDWSPHSSRWGTALKSLHSMTRPMIGKLKIFIHDDYKIAGTSEGAVYLGIYDNREVAVKVFRENSPRGCKEVSCLRDCGDHSNLVAFYGREDDKGCLYVCVSLCEWTLEEFLRLPREEPVENGEDKFAHSILLSIFEGVQKLHLHGYSHQDLQPQNILIDSKKAVRLADFDQSIRWMGESQMVRRDLEDLGRLVLYVVMKGEIPFETLKTQNDEVLLTMSPDEETKDLIHCLFSPGENVKNCLVDLLGHPFFWTWENRYRTLRNVGNESDIKVRKCKSDLLRLLQHQTLEPPRSFDQWTSKIDKNVMDEMNHFYEKRKKNPYQD
Q: How did the “2-5A binding activity, % of the activity of clone ZB1” value ([3]; uv crosslinking, phosphorimager analysis of dried gel, wheat germ extract translation products) turn out when B2 was run?
A: 12.2%

B3: Clone ZB15: murine 2-5A-dependent RNase deletion mutant, amino acids 1 to 218, both P-loop motifs deleted (protein, UniProt Q05921 1-218, looked up, fragment)
chain: METPDYNTPQGGTPSAGSQRTVVEDDSSLIKAVQKGDVVRVQQLLEKGADANACEDTWGWTPLHNAVQAGRVDIVNLLLSHGADPHRRKKNGATPFIIAGIQGDVKLLEILLSCGADVNECDENGFTAFMEAAERGNAEALRFLFAKGANVNLRRQTTKDKRRLKQGGATALMSAAEKGHLEVLRILLNDMKAEVDARDNMGRNALIRTLLNWDCENV
Q: B3 was tested. Which “2-5A binding activity (in words)” value [4] did it give?
A: completely lacking in 2-5A binding activity
